According to patent US9006228B2 (Merck Sharp & Dohme Corp., priority 2011, dated 2015):

molecular target: T1, human GPR119 (Homo sapiens, UniProt Q8TDV5); experiment: Measurement of GPR119 signaling (cAMP assay; LANCE kit or HTRF) in HEK293 cells stably transfected with human GPR119; assay type: cell-based; details: agonist-stimulated cAMP in HEK293 cells expressing human GPR119
T1 sequence (Q8TDV5 1-308 limits assumed): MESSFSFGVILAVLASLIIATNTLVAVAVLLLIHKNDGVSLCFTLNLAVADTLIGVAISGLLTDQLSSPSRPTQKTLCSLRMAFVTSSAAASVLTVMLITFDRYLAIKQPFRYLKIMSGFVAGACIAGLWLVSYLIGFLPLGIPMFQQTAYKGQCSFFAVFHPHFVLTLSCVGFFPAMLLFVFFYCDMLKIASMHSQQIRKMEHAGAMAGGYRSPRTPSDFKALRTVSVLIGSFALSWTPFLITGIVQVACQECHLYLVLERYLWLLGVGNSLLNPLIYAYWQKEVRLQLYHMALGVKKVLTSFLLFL
Procedure, shortened: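 LANCE method: cAMP detected with Eu-chelate/biotin-cAMP tracer, 3 h, read at 665 nm, converted via cAMP standards; basal from DMSO, maximum from internal agonist, 4-parameter fit.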

First: CCS(=O)(=O)c1ccc(COC[C@@H]2C[C@@H]2C2CCN(c3nc(C4CCC4)no3)CC2)cc1 [Example 32, 1-(3-cyclobutyl-1,2,4-oxadiazol-5-yl)-4-[(1R,2R)-2-({[4-(ethylsulfonyl)benzyl]oxy}methyl)cyclopropyl]piperidine]
Second: O=S(=O)(c1ccc(COC[C@@H]2C[C@@H]2C2CCN(c3nc(C4CCC4)no3)CC2)cc1)C1CC1 [Example 31, 1-(3-cyclobutyl-1,2,4-oxadiazol-5-yl)-4-[(1R,2R)-2-({[4-(cyclopropylsulfonyl)benzyl]oxy}methyl)cyclopropyl]piperidine]
The EC50 of the first is 8.8-fold lower: 0.8 nM for the first, 7 nM for the second. The first is the more potent here.

First: CCc1cnc(N2CCC([C@H]3C[C@H]3COCc3ccc(-c4ccnnc4)cc3)CC2)nc1 [Example 121]
Second: CCc1cnc(N2CCC([C@H]3C[C@H]3COCc3ccc(-c4ncno4)cc3)CC2)nc1 [Example 63, 5-ethyl-2-{4-[(1R,2R)-2-({[4-(1,2,4-oxadiazol-5-yl)benzyl]oxy}methyl)cyclopropyl]piperidin-1-yl}pyrimidine]
The EC50 of the first is 2.9-fold lower: 1.9 nM for the first, 5.5 nM for the second.

Going from `CC(C)COC(=O)N1CCC([C@H]2C[C@H]2COCc2ccc(S(C)(=O)=O)cc2)CC1` [Example 10, isobutyl 4-[(1R,2R)-2-({[4-(methylsulfonyl)benzyl]oxy}methyl)cyclopropyl]piperidine-1-carboxylate] to `CC(C)OC(=O)N1CCC([C@H]2C[C@H]2COCc2ccc(S(C)(=O)=O)cc2)CC1` [Example 9, isopropyl 4-[(1R,2R)-2-({[4-(methylsulfonyl)benzyl]oxy}methyl)cyclopropyl]piperidine-1-carboxylate], the EC50 rises from 8.2 nM to 16 nM (2-fold).

Going from `Cc1cnc(N2CCC([C@H]3C[C@H]3COCc3ccc(S(=O)(=O)CCO)cc3F)CC2)nc1` [Example 82] to `CC(O)CS(=O)(=O)c1ccc(COC[C@@H]2C[C@@H]2C2CCN(c3ncc(F)cn3)CC2)c(F)c1` (stereo partly drawn) [Example 96, 1-({4-[({(1R,2R)-2-[1-(5-fluoropyrimidin-2-yl)piperidin-4-yl]cyclopropyl}methoxy)methyl]-3-fluorophenyl}sulfonyl)propan-2-ol], the EC50 rises from 11.7 nM to 21.9 nM (1.9-fold). The first is the more potent here.

`CC(C)(O)CSc1ccc(COC[C@@H]2C[C@@H]2C2CCN(C(=O)OC(C)(C)C)CC2)cc1` [Example 92] and `CC(=O)CSc1ccc(COC[C@@H]2C[C@@H]2C2CCN(C(=O)OC(C)(C)C)CC2)cc1` [Example 91] are within 1.5-fold of each other in EC50: 20.3 nM for the first, 14.9 nM for the second.

Compared with `Cc1cnc(N2CCC([C@H]3C[C@H]3COCc3ccc(S(C)(=O)=O)cc3)CC2)nc1` [Example 21, 5-methyl-2-{4-[(1R,2R)-2-({[4-(methylsulfonyl)benzyl]oxy}methyl)cyclopropyl]piperidin-1-yl}pyrimidine], `CC(C)c1cnc(N2CCC([C@H]3C[C@H]3COCc3ccc(S(C)(=O)=O)cc3)CC2)nc1` [Example 23, 5-isopropyl-2-{4-[(1R,2R)-2-({[4-(methylsulfonyl)benzyl]oxy}methyl)cyclopropyl]piperidin-1-yl}pyrimidine] is 6.2-fold lower in EC50: 1.6 nM for the first, 0.26 nM for the second.

Compared with `CCc1cnc(N2CCC([C@H]3C[C@H]3COCc3ccc(-c4cncnc4)c(F)c3)CC2)nc1` [Example 113, 5-{4-[({(1R,2R)-2-[1-(5-ethylpyrimidin-2-yl)piperidin-4-yl]cyclopropyl}methoxy)methyl]-2-fluorophenyl}pyrimidine], `CCc1cnc(N2CCC([C@H]3C[C@H]3COCc3ccc(-c4ccncn4)c(F)c3)CC2)nc1` [Example 112, 4-{4-[({(1R,2R)-2-[1-(5-ethylpyrimidin-2-yl)piperidin-4-yl]cyclopropyl}methoxy)methyl]-2-fluorophenyl}pyrimidine] is 1.5-fold higher in EC50: 2 nM for the first, 3 nM for the second.

First: CC(C)OC(=O)N1CCC([C@H]2C[C@H]2COCc2ccc(S(C)(=O)=O)c(F)c2)CC1 [Example 42, isopropyl 4-[(1R,2R)-2-({[3-fluoro-4-(methylsulfonyl)benzyl]oxy}methyl)cyclopropyl]piperidine-1-carboxylate]
Second: CC(C)(C)OC(=O)N1CCC([C@H]2C[C@H]2COCc2ccc(S(C)(=O)=O)c(F)c2)CC1 [Example 33, tert-butyl 4-[(1R,2R)-2-({[3-fluoro-4-(methylsulfonyl)benzyl]oxy}methyl)cyclopropyl]piperidine-1-carboxylate]
The EC50 of the first is 7.7-fold higher: 8.5 nM for the first, 1.1 nM for the second. The second is the more potent here.

First: CC(O)CS(=O)(=O)c1ccc(COC[C@@H]2C[C@@H]2C2CCN(c3ncc(Cl)cn3)CC2)c(F)c1 (stereo partly drawn) [Example 95, 1-({4-[({(1R,2R)-2-[1-(5-chloropyrimidin-2-yl)piperidin-4-yl]cyclopropyll}methoxy)methyl]-3-fluorophenyl}sulfonyl)propan-2-ol]
Second: CCc1cnc(N2CCC([C@H]3C[C@H]3COCc3ccc(S(C)(=O)=O)c(F)c3)CC2)nc1 [Example 40, 5-ethyl-2-{4-[(1R,2R)-2-({[3-fluoro-4-(methylsulfonyl)benzyl]oxy}methyl)cyclopropyl]piperidin-1-yl}pyrimidine]
The EC50 of the first is 12-fold higher: 2.4 nM for the first, 0.2 nM for the second.

Going from `CCc1cnc(N2CCC([C@H]3C[C@H]3COCc3ccc(-c4cccnn4)cc3F)CC2)nc1` [Example 99, 3-{4-[({(1R,2R)-2-[1-(5-ethylpyrimidin-2-yl)piperidin-4-yl]cyclopropyl}methoxy)methyl]-3-fluorophenyl}pyridazine] to `CCc1cnc(N2CCC([C@H]3C[C@H]3COCc3ccc(-c4ccnc(N)n4)cc3F)CC2)nc1` [Example 105, 4-{4-[({(1R,2R)-2-[1-(5-ethylpyrimidin-2-yl)piperidin-4-yl]cyclopropyl}methoxy)methyl]-3-fluorophenyl}pyrimidin-2-amine], the EC50 rises from 0.1 nM to 10.8 nM (110-fold). The first is the more potent here.

First: O=S(=O)(CCO)c1ccc(COC[C@@H]2C[C@@H]2C2CCN(c3ncc(Br)cn3)CC2)nc1 [Example 87, 2-({6-[({(1R,2R)-2-[1-(5-bromopyrimidin-2-yl)piperidin-4-yl]cyclopropyl}methoxy)methyl]pyridin-3-yl}sulfonyl)ethanol]
Second: CS(=O)(=O)c1ccc(COC[C@@H]2C[C@@H]2C2CCN(c3ncc(Br)cn3)CC2)nc1 [Example 4, 5-bromo-2-{4-[(1R,2R)-2-({[5-(methylsulfonyl)pyridin-2-yl]methoxy}methyl)cyclopropyl]piperidin-1-yl}pyrimidine]
The EC50 of the first is 11-fold higher: 10.7 nM for the first, 1 nM for the second.

Compared with `COCc1cnc(N2CCC([C@H]3C[C@H]3COCc3ccc(CC(=O)N4CCOCC4)cc3F)CC2)nc1` [Example 146, 2-(3-fluoro-4-((((1R,2R)-2-(1-(5-(methoxymethyl)pyrimidin-2-yl)piperidin-4-yl)cyclopropyl)methoxy)methyl)phenyl)-1-morpholinoethanone], `CC(C)c1noc(N2CCC([C@H]3C[C@H]3COCc3ccc(CC(=O)N4CCOCC4)c(F)c3)CC2)n1` [Example 141, 2-(2-fluoro-4-((((1R,2R)-2-(1-(3-isopropyl-1,2,4-oxadiazol-5-yl)piperidin-4-yl)cyclopropyl)methoxy)methyl)phenyl)-1-morpholinoethanone] is 2.7-fold lower in EC50: 3.23 nM for the first, 1.2 nM for the second.

Going from `CCc1cnc(N2CCC([C@H]3C[C@H]3COCc3ccc(S(=O)(=O)CC[C@H](C)O)cc3)CC2)nc1` [Example 64] to `CC(C)Cc1cnc(N2CCC([C@H]3C[C@H]3COCc3ccc(S(C)(=O)=O)cc3)CC2)nc1` [Example 19, 5-isobutyl-2-{4-[(1R,2R)-2-({[4-(methylsulfonyl)benzyl]oxy}methyl)cyclopropyl]piperidin-1-yl}pyrimidine], the EC50 falls from 0.6 nM to 0.13 nM (4.6-fold).

Compared with `O=C(c1c(F)cc(COC[C@@H]2C[C@@H]2C2CCN(c3ncc(Cl)cn3)CC2)cc1F)C1CC1` [Example 53], `CCc1cnc(N2CCC([C@H]3C[C@H]3COCc3ccc(-c4cnc(C)s4)cc3F)CC2)nc1` [Example 111, 5-ethyl-2-{4-[(1R,2R)-2-({[2-fluoro-4-(2-methyl-1,3-thiazol-5-yl)benzyl]oxy}methyl)cyclopropyl]piperidin-1-yl}pyrimidine] is 4-fold higher in EC50: 1 nM for the first, 4 nM for the second. The first is the more potent here.

First: CCc1cnc(N2CCC([C@H]3C[C@H]3COCc3ccc(-c4ccc(OC)nn4)cc3F)CC2)nc1 [Example 101, 3-{4-[({(1R,2R)-2-[1-(5-ethylpyrimidin-2-yl)piperidin-4-yl]cyclopropyl}methoxy)methyl]-3-fluorophenyl}-6-methoxypyridazine]
Second: CCc1cnc(N2CCC([C@H]3C[C@H]3COCc3ccc(CCO)cc3)CC2)nc1 [Example 60, 2-{4-[({(1R,2R)-2-[1-(5-ethylpyrimidin-2-yl)piperidin-4-yl]cyclopropyl}methoxy)methyl]phenyl}ethanol]
The EC50 of the first is 3.1-fold lower: 0.8 nM for the first, 2.5 nM for the second. The first is the more potent here.

First: CCc1cnc(N2CCC([C@H]3C[C@H]3[C@@H](COC)OCc3ccc(S(C)(=O)=O)cc3)CC2)nc1 [Example 66]
Second: CC1(OC(=O)N2CCC([C@H]3C[C@H]3COCc3ccc(S(C)(=O)=O)cc3)CC2)CC1 [Example 11, 1-methylcyclopropyl 4-[(1R,2R)-2-({[4-(methylsulfonyl)benzyl]oxy}methyl)cyclopropyl]piperidine-1-carboxylate]
The EC50 of the first is 21-fold lower: 0.19 nM for the first, 3.9 nM for the second. The first is the more potent here.

For `COCc1noc(N2CCC([C@H]3C[C@H]3COCc3ccc(-n4cnnn4)cc3F)CC2)n1` [Example 135, 5-(4-((1R,2R)-2-((2-fluoro-4-(1H-tetrazol-1-yl)benzyloxy)methyl)cyclopropyl)piperidin-1-yl)-3-(methoxymethyl)-1,2,4-oxadiazole], the EC50 was 9.8 nM.
